Experimental data as given in ChEMBL document CHEMBL4507277.

How the values were obtained:
[1] = biological target: Glycogen synthase kinase-3 alpha (Homo sapiens) (UniProt P49840); settings: Compound concentration 1000.0 nM
[2] = biological target: D(2) dopamine receptor (Homo sapiens) (UniProt P14416); settings: Compound concentration 10.0 uM
[3] = biological target: Muscarinic acetylcholine receptor M3 (Homo sapiens) (UniProt P20309); settings: Compound concentration 10.0 uM
[4] = biological target: Dual specificity mitogen-activated protein kinase kinase 4 (Homo sapiens) (UniProt P45985); settings: Compound concentration 1000.0 nM
[5] = biological target: Tyrosine-protein kinase SYK (Homo sapiens) (UniProt P43405); settings: Compound concentration 1000.0 nM
[6] = test system: Phosphatidylinositol 4,5-bisphosphate 3-kinase catalytic subunit alpha isoform (Homo sapiens), P42336 [H1047Y]; settings: Compound concentration 1000.0 nM
[7] = biological target: Tyrosine-protein kinase receptor Tie-1 (Homo sapiens) (UniProt P35590); settings: Compound concentration 1000.0 nM
[8] = biological target: cAMP-dependent protein kinase catalytic subunit PRKX (Homo sapiens) (UniProt P51817); settings: Compound concentration 1000.0 nM
[9] = biological target: Serine/threonine-protein kinase Chk2 (Homo sapiens) (UniProt O96017); settings: Compound concentration 1000.0 nM
[10] = test system: Epidermal growth factor receptor (Homo sapiens), P00533 [UNDEFINED MUTATION]; settings: Compound concentration 1000.0 nM
[11] = biological target: Kappa-type opioid receptor (Homo sapiens) (UniProt P41145); settings: Compound concentration 10.0 uM
[12] = biological target: Histamine H4 receptor (Homo sapiens) (UniProt Q9H3N8); settings: Compound concentration 10.0 uM
[13] = biological target: Tyrosine-protein kinase ABL1 (Homo sapiens) (UniProt P00519); settings: Compound concentration 1000.0 nM
[14] = biological target: Dual serine/threonine and tyrosine protein kinase (Homo sapiens) (UniProt Q6XUX3); settings: Compound concentration 1000.0 nM
[15] = biological target: Myotonin-protein kinase (Homo sapiens) (UniProt Q09013); settings: Compound concentration 1000.0 nM
[16] = biological target: Uncharacterized serine/threonine-protein kinase SBK3 (Homo sapiens) (UniProt P0C264); settings: Compound concentration 1000.0 nM
[17] = biological target: 5-hydroxytryptamine receptor 7 (Homo sapiens) (UniProt P34969); settings: Compound concentration 10.0 uM
[18] = biological target: Serine/threonine-protein kinase 25 (Homo sapiens) (UniProt O00506); settings: Compound concentration 1000.0 nM
[19] = biological target: Dual specificity protein kinase CLK4 (Homo sapiens) (UniProt Q9HAZ1); settings: Compound concentration 1000.0 nM
[20] = biological target: Eukaryotic translation initiation factor 2-alpha kinase 1 (Homo sapiens) (UniProt Q9BQI3); settings: Compound concentration 1000.0 nM
[21] = biological target: Calcium/calmodulin-dependent protein kinase type IV (Homo sapiens) (UniProt Q16566); settings: Compound concentration 1000.0 nM
[22] = biological target: Atypical kinase COQ8A, mitochondrial (Homo sapiens) (UniProt Q8NI60); settings: Compound concentration 1000.0 nM
[23] = biological target: Sigma receptor (Homo sapiens) (UniProt Q99720+Q5BJF2); settings: Cavia porcellus; Compound concentration 10.0 uM
[24] = biological target: Histamine H2 receptor (Homo sapiens) (UniProt P25021); settings: Compound concentration 10.0 uM
[25] = biological target: Angiotensin-converting enzyme (Oryctolagus cuniculus) (UniProt P12822); settings: Compound concentration 10.0 uM
[26] = biological target: Voltage-dependent N-type calcium channel subunit alpha-1B (Rattus norvegicus) (UniProt Q02294); settings: Compound concentration 10.0 uM
[27] = biological target: D(1A) dopamine receptor (Homo sapiens) (UniProt P21728); settings: Compound concentration 10.0 uM
[28] = biological target: Polyunsaturated fatty acid lipoxygenase ALOX15 (Oryctolagus cuniculus) (UniProt P12530); settings: Compound concentration 10.0 uM
[29] = biological target: Sodium-dependent dopamine transporter (Homo sapiens) (UniProt Q01959); settings: Compound concentration 10.0 uM
[30] = biological target: 5-hydroxytryptamine receptor 5A (Homo sapiens) (UniProt P47898); settings: Compound concentration 10.0 uM
[31] = biological target: Beta-1 adrenergic receptor (Homo sapiens) (UniProt P08588); settings: Compound concentration 10.0 uM
[32] = biological target: D(2) dopamine receptor (Homo sapiens) (UniProt P14416); settings: Compound concentration 10.0 uM; remark: listed apart in the source
[33] = biological target: Acetylcholinesterase (Homo sapiens) (UniProt P22303); settings: Compound concentration 10.0 uM
[34] = biological target: Potassium voltage-gated channel subfamily A member 1 (Rattus norvegicus) (UniProt P10499); settings: Compound concentration 10.0 uM
[35] = biological target: Serotonin 2 (5-HT2) receptor (Rattus norvegicus) (UniProt P30994+P08909+P14842); settings: Compound concentration 10.0 uM
[36] = biological target: Sigma intracellular receptor 2 (Homo sapiens) (UniProt Q5BJF2); settings: Compound concentration 10.0 uM
[37] = biological target: Cathepsin G (Homo sapiens) (UniProt P08311); settings: Compound concentration 10.0 uM
[38] = biological target: Nitric oxide synthase 3 (Rattus norvegicus) (UniProt Q62600); settings: Compound concentration 10.0 uM
[39] = biological target: Leukotriene C4 synthase (Cavia porcellus) (UniProt A6XA80); settings: Compound concentration 10.0 uM
[40] = biological target: Calpain-1 catalytic subunit (Homo sapiens) (UniProt P07384); settings: Compound concentration 10.0 uM
[41] = biological target: Beta-2 adrenergic receptor (Rattus norvegicus) (UniProt P10608); settings: Compound concentration 10.0 uM
[42] = biological target: Adenosine receptor A1 (Homo sapiens) (UniProt P30542); settings: Compound concentration 10.0 uM
[43] = biological target: 3',5'-cyclic-AMP phosphodiesterase 4A (Homo sapiens) (UniProt P27815); settings: Compound concentration 10.0 uM
[44] = biological target: Carbonic anhydrase 6 (Homo sapiens) (UniProt P23280); settings: Compound concentration 10.0 uM
[45] = biological target: Polyunsaturated fatty acid 5-lipoxygenase (Homo sapiens) (UniProt P09917); settings: Compound concentration 10.0 uM

Tyrosine-protein kinase ABL1 (Homo sapiens), sequence (P00519 whole entry): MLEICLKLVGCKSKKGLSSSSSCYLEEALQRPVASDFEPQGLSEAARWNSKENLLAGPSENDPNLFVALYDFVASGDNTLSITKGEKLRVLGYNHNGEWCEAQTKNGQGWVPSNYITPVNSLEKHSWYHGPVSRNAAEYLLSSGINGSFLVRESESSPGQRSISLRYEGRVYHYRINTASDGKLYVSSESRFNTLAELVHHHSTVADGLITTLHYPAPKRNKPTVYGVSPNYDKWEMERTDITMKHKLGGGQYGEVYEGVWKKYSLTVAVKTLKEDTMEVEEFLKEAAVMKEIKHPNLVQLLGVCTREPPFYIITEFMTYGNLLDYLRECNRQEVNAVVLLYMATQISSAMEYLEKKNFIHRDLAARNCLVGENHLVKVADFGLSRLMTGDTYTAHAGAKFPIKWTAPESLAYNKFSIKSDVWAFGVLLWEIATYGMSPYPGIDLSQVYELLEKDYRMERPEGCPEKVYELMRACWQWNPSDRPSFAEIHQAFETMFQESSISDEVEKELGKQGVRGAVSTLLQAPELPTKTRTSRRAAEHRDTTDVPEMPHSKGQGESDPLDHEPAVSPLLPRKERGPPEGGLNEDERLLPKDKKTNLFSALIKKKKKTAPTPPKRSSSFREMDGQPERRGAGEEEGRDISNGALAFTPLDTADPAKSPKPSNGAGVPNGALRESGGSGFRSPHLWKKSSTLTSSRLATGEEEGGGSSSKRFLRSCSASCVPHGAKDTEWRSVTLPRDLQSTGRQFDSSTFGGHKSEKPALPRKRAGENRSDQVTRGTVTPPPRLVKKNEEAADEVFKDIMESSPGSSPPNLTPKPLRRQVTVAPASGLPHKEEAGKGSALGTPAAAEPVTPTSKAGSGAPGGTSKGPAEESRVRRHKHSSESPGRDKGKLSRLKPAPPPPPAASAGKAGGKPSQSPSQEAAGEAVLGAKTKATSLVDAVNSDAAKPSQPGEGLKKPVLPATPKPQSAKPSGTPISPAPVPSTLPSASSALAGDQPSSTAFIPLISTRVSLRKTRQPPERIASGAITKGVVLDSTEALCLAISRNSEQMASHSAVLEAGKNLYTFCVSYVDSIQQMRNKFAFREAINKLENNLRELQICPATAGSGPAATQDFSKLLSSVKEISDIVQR
Kappa-type opioid receptor (Homo sapiens), sequence (P41145 whole entry): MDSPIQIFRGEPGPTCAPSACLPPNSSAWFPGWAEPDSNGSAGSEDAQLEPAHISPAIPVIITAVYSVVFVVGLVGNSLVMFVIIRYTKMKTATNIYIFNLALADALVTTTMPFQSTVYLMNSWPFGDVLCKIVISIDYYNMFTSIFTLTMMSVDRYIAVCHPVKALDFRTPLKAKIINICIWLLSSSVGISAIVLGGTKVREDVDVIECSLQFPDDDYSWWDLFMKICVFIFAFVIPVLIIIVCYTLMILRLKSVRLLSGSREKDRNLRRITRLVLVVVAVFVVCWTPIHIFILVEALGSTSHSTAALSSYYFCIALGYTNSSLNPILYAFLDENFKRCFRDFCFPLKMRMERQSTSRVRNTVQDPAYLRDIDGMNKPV
cAMP-dependent protein kinase catalytic subunit PRKX (Homo sapiens), sequence (P51817 whole entry): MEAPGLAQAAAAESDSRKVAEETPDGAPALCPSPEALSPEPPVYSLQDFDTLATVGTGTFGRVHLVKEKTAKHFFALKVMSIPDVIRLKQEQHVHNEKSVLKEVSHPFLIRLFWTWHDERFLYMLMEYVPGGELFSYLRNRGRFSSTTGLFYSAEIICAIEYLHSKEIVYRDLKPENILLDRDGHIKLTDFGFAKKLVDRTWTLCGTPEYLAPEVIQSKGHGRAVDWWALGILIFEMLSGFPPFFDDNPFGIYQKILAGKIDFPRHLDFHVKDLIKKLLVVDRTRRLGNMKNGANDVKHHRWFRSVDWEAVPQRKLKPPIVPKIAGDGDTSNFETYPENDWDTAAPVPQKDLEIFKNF
Glycogen synthase kinase-3 alpha (Homo sapiens), sequence (P49840 2-483 limits assumed): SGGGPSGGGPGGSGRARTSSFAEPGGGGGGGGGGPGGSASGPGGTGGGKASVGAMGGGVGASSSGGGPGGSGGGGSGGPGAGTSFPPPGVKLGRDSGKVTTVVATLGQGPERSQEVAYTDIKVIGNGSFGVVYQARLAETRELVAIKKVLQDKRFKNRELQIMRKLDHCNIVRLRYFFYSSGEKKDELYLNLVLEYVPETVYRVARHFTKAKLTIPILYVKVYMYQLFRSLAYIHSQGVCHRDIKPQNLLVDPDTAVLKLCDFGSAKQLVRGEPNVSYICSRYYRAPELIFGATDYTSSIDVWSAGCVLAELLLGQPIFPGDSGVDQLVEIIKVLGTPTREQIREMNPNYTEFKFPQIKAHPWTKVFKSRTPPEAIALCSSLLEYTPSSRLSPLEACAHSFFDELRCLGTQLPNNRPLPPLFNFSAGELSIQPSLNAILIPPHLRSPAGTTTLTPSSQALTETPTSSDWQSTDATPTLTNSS
Myotonin-protein kinase (Homo sapiens), sequence (Q09013 whole entry): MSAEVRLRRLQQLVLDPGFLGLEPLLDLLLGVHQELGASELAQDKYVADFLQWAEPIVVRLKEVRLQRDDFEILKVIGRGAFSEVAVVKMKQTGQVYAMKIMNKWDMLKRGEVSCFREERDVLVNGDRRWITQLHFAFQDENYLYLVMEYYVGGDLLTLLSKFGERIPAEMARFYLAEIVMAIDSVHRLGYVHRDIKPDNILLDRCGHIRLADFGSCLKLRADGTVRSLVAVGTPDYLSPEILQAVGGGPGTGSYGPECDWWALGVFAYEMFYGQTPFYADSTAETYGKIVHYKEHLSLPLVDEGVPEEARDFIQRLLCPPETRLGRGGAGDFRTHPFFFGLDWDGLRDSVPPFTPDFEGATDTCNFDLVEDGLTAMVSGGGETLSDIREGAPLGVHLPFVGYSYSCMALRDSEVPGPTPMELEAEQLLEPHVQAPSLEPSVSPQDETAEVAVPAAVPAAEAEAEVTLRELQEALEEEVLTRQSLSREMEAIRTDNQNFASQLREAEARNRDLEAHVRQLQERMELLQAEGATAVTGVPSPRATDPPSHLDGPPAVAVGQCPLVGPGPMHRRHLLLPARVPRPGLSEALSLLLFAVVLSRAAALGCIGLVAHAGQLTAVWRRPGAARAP
Dual specificity mitogen-activated protein kinase kinase 4 (Homo sapiens), sequence (P45985 whole entry): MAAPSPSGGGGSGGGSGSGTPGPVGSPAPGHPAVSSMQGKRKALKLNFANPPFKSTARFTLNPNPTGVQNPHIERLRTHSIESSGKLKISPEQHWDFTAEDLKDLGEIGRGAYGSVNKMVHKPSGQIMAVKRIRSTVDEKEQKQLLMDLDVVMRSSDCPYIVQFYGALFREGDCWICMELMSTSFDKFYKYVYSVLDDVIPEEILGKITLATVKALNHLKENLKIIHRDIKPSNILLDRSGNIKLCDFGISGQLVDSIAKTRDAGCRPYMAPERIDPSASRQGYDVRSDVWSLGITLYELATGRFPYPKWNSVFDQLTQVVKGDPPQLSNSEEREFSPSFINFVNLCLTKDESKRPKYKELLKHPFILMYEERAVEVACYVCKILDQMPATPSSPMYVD
Calcium/calmodulin-dependent protein kinase type IV (Homo sapiens), sequence (Q16566 whole entry): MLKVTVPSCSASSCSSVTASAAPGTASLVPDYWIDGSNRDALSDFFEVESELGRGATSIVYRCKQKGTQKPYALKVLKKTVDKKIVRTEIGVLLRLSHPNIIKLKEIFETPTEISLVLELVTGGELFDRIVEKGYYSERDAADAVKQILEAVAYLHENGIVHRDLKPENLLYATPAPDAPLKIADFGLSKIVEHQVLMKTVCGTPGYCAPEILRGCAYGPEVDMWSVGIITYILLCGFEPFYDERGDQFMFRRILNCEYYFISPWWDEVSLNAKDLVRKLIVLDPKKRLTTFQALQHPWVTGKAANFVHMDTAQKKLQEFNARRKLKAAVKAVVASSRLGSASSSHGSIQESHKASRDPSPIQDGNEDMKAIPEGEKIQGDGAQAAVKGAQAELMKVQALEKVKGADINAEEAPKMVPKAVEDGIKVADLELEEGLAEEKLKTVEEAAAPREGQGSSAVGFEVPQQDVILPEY
Serine/threonine-protein kinase Chk2 (Homo sapiens), sequence (O96017 whole entry): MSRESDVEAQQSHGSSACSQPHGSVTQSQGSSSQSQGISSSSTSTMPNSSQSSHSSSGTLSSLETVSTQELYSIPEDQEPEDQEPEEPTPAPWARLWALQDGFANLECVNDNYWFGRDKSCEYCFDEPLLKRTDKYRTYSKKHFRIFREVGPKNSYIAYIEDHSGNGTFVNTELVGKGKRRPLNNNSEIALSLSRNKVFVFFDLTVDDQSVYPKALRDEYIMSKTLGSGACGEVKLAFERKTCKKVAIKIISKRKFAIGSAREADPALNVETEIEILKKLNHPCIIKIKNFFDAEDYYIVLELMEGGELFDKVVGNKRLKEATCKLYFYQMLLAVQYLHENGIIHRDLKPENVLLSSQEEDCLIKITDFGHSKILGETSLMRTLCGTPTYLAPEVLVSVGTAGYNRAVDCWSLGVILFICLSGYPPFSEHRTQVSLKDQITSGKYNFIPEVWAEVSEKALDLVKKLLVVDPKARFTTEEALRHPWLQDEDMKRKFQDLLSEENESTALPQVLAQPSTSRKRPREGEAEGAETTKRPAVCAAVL
Histamine H4 receptor (Homo sapiens), sequence (Q9H3N8 whole entry): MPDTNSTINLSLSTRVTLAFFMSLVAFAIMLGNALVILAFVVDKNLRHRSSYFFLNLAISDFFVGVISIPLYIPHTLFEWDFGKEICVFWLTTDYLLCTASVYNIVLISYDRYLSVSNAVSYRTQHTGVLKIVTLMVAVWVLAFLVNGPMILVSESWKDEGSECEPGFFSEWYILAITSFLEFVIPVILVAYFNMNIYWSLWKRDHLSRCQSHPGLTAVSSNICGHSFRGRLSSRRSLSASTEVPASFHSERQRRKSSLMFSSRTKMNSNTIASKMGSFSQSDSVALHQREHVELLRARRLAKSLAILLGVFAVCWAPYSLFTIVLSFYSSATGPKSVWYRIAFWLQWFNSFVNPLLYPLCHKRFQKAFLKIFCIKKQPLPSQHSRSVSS
Leukotriene C4 synthase (Cavia porcellus), sequence (A6XA80 whole entry): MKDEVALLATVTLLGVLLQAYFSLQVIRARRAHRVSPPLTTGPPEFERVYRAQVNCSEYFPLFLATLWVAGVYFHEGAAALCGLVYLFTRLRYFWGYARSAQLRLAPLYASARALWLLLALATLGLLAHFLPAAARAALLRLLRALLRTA

CCS(=O)(=O)c1cc2cc(C[C@@](O)(CC(C)(C)c3ccc(F)cc3C(N)=O)C(F)(F)F)[nH]c2cn1
inactive: residual activity [1] 100% | inhibition [2] -8.41% | inhibition [3] 1.25% | residual activity [4] 100% | residual activity [5] 92% | residual activity [6] 95% | residual activity [7] 66% | residual activity [8] 77% | residual activity [9] 84% | residual activity [10] 100% | inhibition [11] 28.3% | inhibition [12] 2.05% | residual activity [13] 71% | residual activity [14] 100% | residual activity [15] 85% | residual activity [16] 94% | inhibition [17] 4.44% | residual activity [18] 87% | residual activity [19] 100% | residual activity [20] 80% | residual activity [21] 100% | residual activity [22] 95%

CCS(=O)(=O)c1cc2cc(C[C@](O)(CC(C)(C)c3ccc(F)cc3C(N)=O)C(F)(F)F)[nH]c2cn1
inactive: residual activity [23] 86% | residual activity [24] 96% | residual activity [1] 100% | residual activity [25] 109% | residual activity [26] 96% | residual activity [27] 92% | residual activity [4] 100% | residual activity [28] 89% | residual activity [5] 100% | residual activity [29] 106% | inhibition [30] 12.2% | residual activity [6] 100% | residual activity [7] 100% | residual activity [8] 100% | residual activity [9] 92% | residual activity [31] 90% | residual activity [10] 100% | inhibition [11] 23.4% | inhibition [12] 3.88% | residual activity [32] 90% | residual activity [33] 91% | residual activity [34] 87% | residual activity [35] 94% | residual activity [13] 100% | inhibition [36] 9.04% | residual activity [14] 86% | residual activity [37] 104% | residual activity [15] 99% | residual activity [38] 99% | residual activity [16] 100% | residual activity [39] 104% | residual activity [40] 98% | inhibition [17] 4.98% | residual activity [18] 86% | residual activity [19] 95% | residual activity [41] 75% | residual activity [42] 107% | residual activity [20] 100% | residual activity [43] 81% | residual activity [21] 100% | residual activity [44] 85% | residual activity [22] 92% | residual activity [45] 79%
